Reference: patent publication US20070099915A1, “INHIBITORS OF THE HIV INTEGRASE ENZYME” (PFIZER INC., priority 2005, published 2007)
Where two headings read alike, the source gives them in different places.

Key:
[1] = system: HIV-1 RF virus in CEM-SS cells; experiment: HIV-1 cell protection assay (XTT dye reduction); type: cell-based
Description: Six days later, 50 μl of XTT solution (1 mg/ml XTT tetrazolium and 20 nM phenazine methosulfate) were added to the wells and the plates were reincubated for four hours. Viability, as determined by the amount of XTT formazan produced, was quantified spectrophotometrically by absorbance at 450 nm.
Data from CPE assays were expressed as the percent of formazan produced in compound-treated cells compared to formazan produced in wells of uninfected, compound-free cells. […] The 50% cytotoxicity concentration (CC50) was calculated as the concentration of compound that decreased the percentage of formazan produced in uninfected, compound-treated cells to 50% of that produced in uninfected, compound-free cells. The therapeutic index was calculated by dividing the cytotoxicity (CC50) by the antiviral activity (EC50).

[2] = target: T1, Full-length wild type HIV-1 integrase (SF1) (Human immunodeficiency virus type 1 group M subtype B, UniProt P04585); experiment: Integrase strand-transfer scintillation proximity assay; type: biochemical
T1 construct: made in house; host or cells: E. coli BL21 (DE3)
Description: The annealed product represents preprocessed viral ds-DNA derived from the LTR U5 sequence of the viral genome. A ds-DNA control to test for non-specific interactions was made using a 3′ di-deoxy derivative of oligonucleotide #1 annealed to oligonucleotide #2. The CA overhang at the 5′ end of the non-biotinylated strand of the ds-DNA was created artificially by using a complimentary DNA oligonucleotide shortened by 2 base pairs. This configuration eliminates the requisite 3′ processing step of the integrase enzyme prior to the strand-transfer mechanism.
The annealed product had overhanging 3′ ends of poly(dA). […] The radiolabeled product was purified using a NENSORB cartridge and stored in stabilized aqueous solution (PerkinElmer).
Reagents: Streptavidin-coated polyvinyltoluene (PVT) SPA beads were purchased from Amersham Biosciences (Piscataway, N.J.). Cesium chloride was purchased from Shelton Scientific, Inc. (Shelton, Conn.). White, polystyrene, flat-bottom, non-binding surface, 96-well plates were purchased from Corning. All other buffer components were purchased from Sigma (St. Louis, Mo.) unless otherwise indicated.
Enzyme Construction: Full-length wild type HIV-1 integrase (SF1) sequence (amino acids 1-289) was constructed in a pET24a vector (Novagen, Madison, Wis.).
Enzyme Purification: Full length wild-type HIV Integrase was expressed in E. coli BL21 (DE3) cells and induced with 1 mM isopropyl-1 thio-β-D-galactopyranoside (IPTG) when cells reached an optical density between 0.8-1.0 at 600 nm. Cells were lysed by microfluidation in 50 mM HEPES pH 7.0, 75 mM NaCl, 5 mM DTT, 1 mM 4-(2-Aminoethyl)benzenesulfonylfluoride HCl (AEBSF). Lysate was then centrifuged 20 minutes at 11 k rpm in GSA rotor in Sorvall RC-5B at 4° C. Supernant was discarded and pellet resuspended in 50 mM HEPES pH 7.0, 750 mM NaCl, 5 mM DTT, 1 mM AEBSF and homogenized in a 40 mL Dounce homogenizer for 20 minutes on ice. Homogenate was then centrifuged 20 minutes at 11 k rpm in SS34 rotor in Sorvall RC-5B at 4° C. Supernant was discarded and pellet resuspended in 50 mM HEPES pH 7.0, 750 mM NaCl, 25 mM CHAPS, 5 mM DTT, 1 mM AEBSF. Preparation was then centrifuged 20 minutes at 11 k rpm in SS34 rotor in Sorvall RC-5B at 4° C.
Supernant was then diluted 1:1 with 50 mM HEPES pH 7.0, 25 mM CHAPS, 1 mM DTT, 1 mM AEBSF and loaded onto a Q-Sepharose column pre-equilibrated with 50 mM HEPES, pH 7.0, 375 mM NaCl, 25 mM CHAPS, 1 mM DTT, 1 mM AEBSF. The flow through peak was collected and NaCl diluted to 0.1 M with 50 mM HEPES pH 7.0, 25 mM CHAPS, 1 mM DTT, 0.5 mM AEBSF and loaded onto a SP-Sepharose column pre-equilibrated with 50 mM HEPES pH 7.0, 100 mM NaCl, 25 mM CHAPS, 1 mM DTT, 0.5 mM AEBSF. After washing the column with the equilibration buffer, a 100 to 400 mM NaCl gradient was run. The eluted integrase was concentrated and run on a S-300 gel diffusion column using 50 mM HEPES pH 7.0, 500 mM NaCl, 25 mM CHAPS, 1 mM DTT, 0.5 mM AEBSF. […] All columns were run in a 4° C. cold room.
Viral DNA Bead Preparation: Streptavidin-coated SPA beads were suspended to 20 mg/mL in 25 mM 3-morpholinopropanesulfonic acid (MOPS) (pH 7.2) and 1.0% NaN3. Biotinylated viral DNA was bound to the hydrated SPA beads in a batch process by combining […] of ds-DNA to 1 mg of suspended SPA beads (10 μL of 50 μM viral DNA to 1 mL of 20 mg/mL SPA beads). The mixture was incubated at 22° C. for a minimum of 20 min. with occasional mixing followed by centrifugation at 2500 rpm for 10 min.

[3] = Human immunodeficiency virus 1, 144 h, RF strain of HIV-1, CEM-SS cells, XTT read-out after six days, read-out: EC50
[4] = strand-transfer SPA, 246 nM integrase, 50 nM host DNA, 37° C., 50 min, read-out: IC50

`Cc1cc2c(ncc3c2c(CN2CCN(C)CC2)cn3Cc2ccc(F)cc2)c(=O)n1O` [Example 95, 3-(4-fluorobenzyl)-7-hydroxy-8-methyl-1-[(4-methylpiperazin-1-yl)methyl]3,7-dihydro-6H-pyrrolo[2,3-c]-1,7-naphthyridin-6-one] was tested, and the EC50 [1, 3] was 0.45 nM and the IC50 [2, 4] was 14 nM.
In the case of `O=c1c2ncc3c(c(-c4ccccn4)cn3Cc3ccc(F)cc3)c2ccn1O` [Example 9, 3-(4-fluorobenzyl)-7-hydroxy-1-pyridin-2-yl-3,7-dihydro-6H-pyrrolo[2,3-c]-1,7-naphthyridin-6-one], the EC50 [1, 3] is reported as 2 nM and the IC50 [2, 4] is reported as 29 nM.
In the case of `CCN(C)Cc1cn(Cc2ccc(F)cc2)c2cnc3c(c12)CCN(O)C3=O` [Example 71, 1-{[ethyl(methyl)amino]methyl}-3-(4-fluorobenzyl)-7-hydroxy-3,7,8,9-tetrahydro-6H-pyrrolo[2,3-c]-1,7-naphthyridin-6-one], the EC50 [1, 3] is reported as 8 nM and the IC50 [2, 4] is reported as 27 nM.
With `COc1cccc(CCOCc2cn(Cc3ccc(F)cc3)c3cnc4c(c23)CCN(O)C4=O)c1` [Example 66] the EC50 [1, 3] was 1 nM and the IC50 [2, 4] was 13 nM.
For `CCCN(CCO)Cc1cn(Cc2ccc(F)cc2)c2cnc3c(=O)n(O)c(C)cc3c12` [Example 97, 3-(4-fluorobenzyl)-7-hydroxy-1-{[(2-hydroxyethyl)(propyl)amino]methyl}-8-methyl-3,7-dihydro-6H-pyrrolo[2,3-c]-1,7-naphthyridin-6-one], the EC50 [1, 3] was 0.69 nM and the IC50 [2, 4] was 17 nM.
Compound `CC(=O)CCCOCc1cn(Cc2ccc(F)cc2)c2cnc3c(c12)CCN(O)C3=O` [Example 63, 3-(4-fluorobenzyl)-7-hydroxy-1-{[(4-oxopentyl)oxy]methyl}-3,7,8,9-tetrahydro-6H-pyrrolo[2,3-c]-1,7-naphthyridin-6-one] has an EC50 [1, 3] of 3 nM and an IC50 [2, 4] of 10 nM.
Compound `O=C1c2ncc3c(c(COCC4CCC4)cn3Cc3ccc(F)cc3)c2CCN1O` [Example 79, 1-[(cyclobutylmethoxy)methyl]-3-(4-fluorobenzyl)-7-hydroxy-3,7,8,9-tetrahydro-6H-pyrrolo[2,3-c]-1,7-naphthyridin-6-one] has an EC50 [1, 3] of 1 nM and an IC50 [2, 4] of 10 nM.
`COCCN1CCN(Cc2cn(Cc3ccc(F)cc3)c3cnc4c(c23)CCN(O)C4=O)CC1` [Example 49, 3-(4-fluorobenzyl)-7-hydroxy-1-{[4-(2-methoxyethyl)piperazin-1-yl]methyl}-3,7,8,9-tetrahydro-6H-pyrrolo[2,3-c]-1,7-naphthyridin-6-one] was tested, and the EC50 [1, 3] was 3.2 nM and the IC50 [2, 4] was 16.2 nM.
`O=C1c2ncc3c(c(CCN4CCOCC4)cn3Cc3ccc(F)cc3)c2CCN1O` [Example 111, 3-(4-fluorobenzyl)-7-hydroxy-1-(2-morpholinoethyl)-8,9-dihydro-3H-pyrrolo[2,3-c][1,7]naphthyridin-6(7H)-one] gave an EC50 [1, 3] of 4 nM and an IC50 [2, 4] of 12 nM.
`O=C1c2ncc3c(c(CCO)cn3Cc3ccc(F)cc3)c2CCN1O` [Example 110, 3-(4-fluorobenzyl)-7-hydro-1-(2-hydroxyethyl)-8,9-dihydro-3H-pyrrolo[2,3-c][1,7]naphthyridin-6(7H)-one] gave an EC50 [1, 3] of 5 nM and an IC50 [2, 4] of 11 nM.
Compound `O=C1c2ncc3c(c(CN4CCCC(F)(F)C4)cn3Cc3ccc(F)cc3)c2CCN1O` [Example 39] has an EC50 [1, 3] of 0.279 nM and an IC50 [2, 4] of 10.3 nM.
In the case of `CN1CCN(C(=O)c2cn(Cc3ccc(F)cc3)c3cnc4c(c23)CCN(O)C4=O)CC1` [Example 17, 3-(4-fluorobenzyl)-7-hydroxy-1-[(4-methylpiperazin-1-yl)carbonyl]-3,7,8,9-tetrahydro-6H-pyrrolo[2,3-c]-1,7-naphthyridin-6-one], the EC50 ([1]; Human immunodeficiency virus 1, CEM-SS, 144 h) is reported as 150 nM and the IC50 [2, 4] is reported as 17 nM.
With `O=C1c2ncc3c(ccn3Cc3ccc(F)cc3)c2C=CCN1O` [Example 10, 3-(4-fluorobenzyl)-7-hydroxy-7,8-dihydropyrrolo[3′,2′:4,5]pyrido[2,3-c]azepin-6(3H)-one] the EC50 [1, 3] was 0.59 nM and the IC50 [2] was 17 nM.
Work on `COCCN(C)Cc1cn(Cc2ccc(F)cc2)c2cnc3c(=O)n(O)c(C)cc3c12` [Example 102, 3-(4-fluorobenzyl)-7-hydroxy-1-{[(2-methoxyethyl)(methyl)amino]methyl}-8-methyl-3,7-dihydro-6H-pyrrolo[2,3-c]-1,7-naphthyridin-6-one] yielded an EC50 [1, 3] of 0.25 nM and an IC50 [2, 4] of 13 nM.
Compound `O=c1c2ncc3c(c(COCCOCc4ccccc4)cn3Cc3ccc(F)cc3)c2ccn1O` [Example 92, 1-{[2-(benzyloxy)ethoxy]methyl}-3-(4-fluorobenzyl)-7-hydroxy-3,7-dihydro-6H-pyrrolo[2,3-c]-1,7-naphthyridin-6-one] has an EC50 [1, 3] of 10 nM and an IC50 [2, 4] of 3 nM.
In the case of `CN1CCN(CCc2cn(Cc3ccc(F)cc3)c3cnc4c(c23)CCN(O)C4=O)CC1=O` [Example 119, 3-(4-fluorobenzyl)-7-hydroxy-1-[2-(4-methyl-3-oxopiperazin-1-yl)ethyl]-3,7,8,9-tetrahydro-6H-pyrrolo[2,3-c]-1,7-naphthyridin-6-one], the EC50 [1, 3] is reported as 70 nM and the IC50 [2, 4] is reported as 12 nM.
`N#Cc1ccccc1Cn1ccc2c3c(ncc21)C(=O)N(O)CC3` [Example 84, 2-[(7-hydroxy-6-oxo-6,7,8,9-tetrahydro-3H-pyrrolo[2,3-c]-1,7-naphthyridin-3-yl)methyl]benzonitrile] gave an EC50 [1, 3] of 32 nM and an IC50 [2, 4] of 125 nM.
`CC(NCc1cn(Cc2ccc(F)cc2)c2cnc3c(=O)n(O)ccc3c12)c1ccc(Br)cc1` (stereo not drawn) [Example 36, 1-({[1-(4-bromophenyl)ethyl]amino}methyl)-3-(4-fluorobenzyl)-7-hydroxy-3,7-dihydro-6H-pyrrolo[2,3-c]-1,7-naphthyridin-6-one] was tested, and the EC50 [1, 3] was 3 nM and the IC50 [2, 4] was 10 nM.
Work on `COC1CCN(Cc2cn(Cc3ccc(F)cc3)c3cnc4c(c23)CCN(O)C4=O)CC1` [Example 100, 3-(4-fluorobenzyl)-7-hydroxy-1-[(4-methoxypiperidin-1-yl)methyl]-3,7,8,9-tetrahydro-6H-pyrrolo[2,3-c]-1,7-naphthyridin-6-one] yielded an EC50 [1, 3] of 0.7 nM and an IC50 [2, 4] of 21 nM.
For `O=C1c2ncc3c(c(COC4CCOCC4)cn3Cc3ccc(F)cc3)c2CCN1O` [Example 30, 3-(4-fluorobenzyl)-7-hydroxy-1-[(tetrahydro-2H-pyran-4-yloxy)methyl]-3,7,8,9-tetrahydro-6H-pyrrolo[2,3-c]-1,7-naphthyridin-6-one], the EC50 [1, 3] was 5 nM and the IC50 [2, 4] was 42 nM.
In the case of `O=C1c2ncc3c(c(CNCC(F)F)cn3Cc3ccc(F)cc3)c2CCN1O` [Example 81, 1-{[(2,2-difluoroethyl)amino]methyl}-3-(4-fluorobenzyl)-7-hydroxy-3,7,8,9-tetrahydro-6H-pyrrolo[2,3-c]-1,7-naphthyridin-6-one], the EC50 [1, 3] is reported as 0.32 nM and the IC50 [2, 4] is reported as 8 nM.
